# Values quoted from earlier work as cited in patent publication US4818687A (priority 1985, dated 1989).
# Test system: human liver cancer
structure (smiles),measurement,value
COc1cc2c(c3oc(=O)c4c(c13)CCC4=O)[C@@H]1C=CO[C@@H]1O2 [aflatoxin B1],association with human liver cancer,statistically associated with increased incidence of human liver cancer
